“Also recorded” adds a separate entry of the source.
Key:
beta-glucuronidase = conditions: cells, blood, urine, intestine (and liver); cited from earlier work
[1] = system: DMBA-induced mammary tumors; assay: DMBA-induced mammary tumor formation (chemoprevention), Example I; assay type: in vivo, female Sprague Dawley rats; conditions: for No. of Rats with Tumors / Total No. Tumors: 20 rats
Method: They were maintained on the diets for approximately 4 mos., and were examined (palpated) for mammary tumors weekly. […] The retinoid (HPR) was first dissolved in 25 ml of a vehicle consisting of ethanol-tricaprylin-6% α-tocopherol, then thoroughly mixed with powdered rat chow.

[2] = system: established DMBA-induced mammary tumors; assay: Growth of established DMBA-induced rat mammary tumors, Example II; assay type: in vivo, female Sprague Dawley rats; conditions: for increase of tumor size / decrease of mammary tumor size: 25 days; for increase of tumor size: controls 98%; for tumor growth: diets supplemented with low ineffective doses; for effect on tumor growth/development when fed separately: low (ineffective) dosages fed separately
Method: Louis, Mo.) in 1.0 ml of sesame oil, Abou-Issa et al., Proc. Natl. Acad. Sci. U.S.A., supra. […] Tumor sizes were measured in all the rats just before placing them on the following experimental diets (Groups I-VI): (I) rat chow (RMH 3200, Pro Lab, Syracuse, N.Y.); […] Natl. Acad. Sci. U.S.A., supra. The latter vehicle was added to the diet of all six groups. The additives were blended into the diet with a mechanical mixer. All the tumors that developed within the time frame of this example are histologically adenocarcinomas. This finding has been previously reported by Huggins et al., Mammary cancer induced by a single feeding of polynuclear hydrocarbons, and its suppression, Nature, 185:204-207 (1961), in this animal model under the same conditions, and has been confirmed in several indentical experiments. At later time periods beyond the time frame of this example fibroadenomas usually develop, Welsch et al., In "Cellular and Molecular Biology of Mammary Cancer", ([…] and E. Anderson, eds.) Plenum Press, N.Y. 1987, pp 163-179. Tumor measurements were began at the time the rats were placed on the experimental diets and were continued twice weekly throughout the duration of the experiment. Two axes were measured - the longest axis (L) and the axis at right angles to the longest (W), using a vernier caliper. […] Weights of the rats on the control and experimental diets were recorded weekly.

[3] = Body weight of rats, Example II; assay type: in vivo, female Sprague Dawley rats; conditions: for Final Weight: end of experiment; for Initial Weight: just before treatment
Method: Rat mammary tumors were induced by treating one hundred 50 day old female Sprague Dawley rats (Harlan Industries, Indianapolis, Ind.) by gavage with a single dose of 15 mg of 7,12-dimethylbenz(a)anthracene (Sigma Chemical Co., St. Louis, Mo.) in 1.0 ml of sesame oil, Abou-Issa et al., Proc. Natl. Acad. Sci. U.S.A., supra. The rats were maintained on a chow diet ad libitum until the tumors had formed in 70% of the rats and had reached a size of approximately 2.0 cm in diameter; 4 months later at which time they were randomized into six groups of 10 rats each. […] The latter vehicle was added to the diet of all six groups. The additives were blended into the diet with a mechanical mixer.
Tumor regression is indicated by at least 20% reduction in tumor size and each tumor is compared to its initial size on day zero. Weights of the rats on the control and experimental diets were recorded weekly.

Estrogen Receptors = assay: Estrogen receptors of established DMBA-induced mammary tumors; assay type: in vivo, female Sprague Dawley rats; conditions: N 7
Method: (§1) Estrogen and progesterone receptors were measured in the OSU Hormone Receptor Laboratory by the multipoint dextran-coated charcoal method as previously described in Schuller et al., Estrogen and progesterone receptors in head and neck cancer, Arch. […] The data of specific binding were analyzed by Scatchard, The Attraction of proteins for small molecules and ions, Ann. N.Y. Acad. Sci. 51:660-672 (1949), plots to determine the equilibrium dissociation constant (Kd) and binding capacity expressed as femtomoles of estradiol or progesterone (R-5020) specifically bound per mg of cytosol protein for estrogen and progesterone receptors respectively. Cytosol protein concentrations were determined by the procedure of Lowry et al., Protein measurement with the folin phenol reagent, J. Biol. Chem. 193:265-275 (1951).

Progesterone Receptors = assay: Progesterone receptors of established DMBA-induced mammary tumors; assay type: in vivo, female Sprague Dawley rats; conditions: N 7
Method: as §1

[4] = Body weight gain of rats, Example I (FIG. 4); assay type: in vivo, female Sprague Dawley rats; conditions: prolonged feeding of diets containing CGT and HPR
[5] = system: 7,12-dimethylbenz(a)anthracene-induced mammary tumorigenesis; conditions: cited from earlier work
chemical carcinogenesis = conditions: sustained release dietary form; liver, lung, skin, mammary gland; cited from earlier work
sex hormones = conditions: CGT diet; anti-promotional effect; cited from earlier work
[6] = as calcium glucarate; cited from earlier work
[7] = CGT-supplemented diet; cited from earlier work
MCF-7 cells = assay: Growth of MCF-7 cells (GL, HPR, GL and HPR), Table II; assay type: cell-based, human; conditions: 5 days; for No. of viable cells: mean ± SE of three experiments
Description: The values shown are the mean +/- ISE for three experiments counted in triplicates. The numbers in parenthesis indicate the number of free floating (mostly non viable) cells in the media.

[8] = system: established DMBA-induced mammary tumors; assay: HPR on already established DMBA-induced mammary tumors; assay type: in vivo, female Sprague Dawley rats
Method: When higher doses (2 mmol/kg diet) of HPR were used, growth arrest was followed within 5 to 10 days by 30% regression of the DMBA-induced mammary tumors. Also, HPR (0.1 uM) inhibited the […] growth of the human breast cancer cell line (MCF-7) to 50% of the control within 7 days.

[9] = system: established mammary tumors; assay: HPR on established mammary tumors in CD8 F1 mice; assay type: in vivo; conditions: CD8 F1 mice with established mammary tumors
[10] = rat, in vivo; cited from earlier work

## 2,4-di-O-acetyl-D-glucaro-1,4-lactone [reference compound]
beta-glucuronidase
  inhibition of beta-glucuronidase: effective as inhibitors of beta-glucuronidase

## O=C([O-])[C@@H](O)[C@@H](O)[C@H](O)[C@@H](O)C(=O)[O-].[Ca+2] [CGT, calcium glucarate]
[1]; 1% CGT in diet
  Tumor Incidence: 55
  Tumors Per Rat: 1.0
  No. of Rats with Tumors: 11
  Total No. Tumors: 20
[1]; 2% CGT in diet
  Tumor Incidence: 55
  Tumors Per Rat: 1.0
  No. of Rats with Tumors: 11
  Total No. Tumors: 20
[1]; 4% CGT in diet
  Tumor Incidence: 35
  Tumors Per Rat: 0.5
  No. of Rats with Tumors: 7
  Total No. Tumors: 10
[1]; CGT (4%)
  inhibition of tumor incidence: 50-60%
  inhibition of tumors/rat: 50-65%
[1]; CGT alone, 4 gm/100 gm of chow diet
  minimum dosage used alone consistent with maximum inhibition of carcinogenesis: ~4 gm %
[2]; CGT 64 mmol/kg
  increase of tumor size: 55%
[2]; CGT 128 mmol/kg
  decrease of mammary tumor size: 25%
[2]
  tumor growth: continued to grow
  effect on tumor growth/development when fed separately: enhanced tumor growth; also recorded: no observable inhibitory effect and indeed enhanced tumor development
[3]; CGT (2%)
  Final Weight: 415 +/- 15 gm
  Initial Weight: 401 +/- 10 gm
[3]; CGT (4%)
  Final Weight: 429 +/- 26 gm
  Initial Weight: 404 +/- 22 gm
Estrogen Receptors; CGT (2%)
  Estrogen Receptors: 42.7 +/- 7.0 Fmoles/mg Protein
Estrogen Receptors; CGT (4%)
  Estrogen Receptors: 44.3 +/- 5.9 Fmoles/mg Protein
Progesterone Receptors; CGT (2%)
  Progesterone Receptors: 84.4 +/- 17.0 Fmoles/mg Protein
Progesterone Receptors; CGT (4%)
  Progesterone Receptors: 82.0 +/- 16.0 Fmoles/mg Protein
[4]
  effect on weight gain: did not affect weight gain
[5]; 4% CGT diet from two weeks after carcinogen, by 28 weeks
  tumor induction relative to controls: 30 % of that in the controls
[5]; chow diet supplemented with CGT, some tumors
  regression of tumors: underwent regression
beta-glucuronidase
  inhibition of beta-glucuronidase: effective as inhibitors of beta-glucuronidase
Chemical carcinogenesis
  chemopreventive activity: potent chemopreventative agent
Sex hormones
  steady-state level of sex hormones: reduction in the steady-state level of sex hormones
[6]
  dietary dosage that is non-toxic: up to 10 % in the diet
[7]
  food quantity and weight gain: identical to those on the normal chow diet

## O=C(O)[C@@H](O)[C@H]1OC(=O)[C@H](O)[C@H]1O [GL, D-glucaro-1,4-lactone]
MCF-7 cells; GL (10^-3 M)
  free floating (mostly non viable) cells, % of control: 7 % of control
  number of free floating (mostly non viable) cells: 4560
  No. of viable cells: 32560 ± 1800
MCF-7 cells; GL (10^-4 M)
  free floating (mostly non viable) cells, % of control: 6 % of control
  number of free floating (mostly non viable) cells: 3440
  No. of viable cells: 49480 + 3160
beta-glucuronidase
  inhibition of beta-glucuronidase: potent inhibitor of beta-glucuronidase

## CC1=C(/C=C/C(C)=C/C=C/C(C)=C/C(=O)Nc2ccc(O)cc2)C(C)(C)CCC1 [HPR, N-(4-hydroxyphenyl) retinamide]
[1]; 0.75 mmol/kg diet HPR
  Tumor Incidence: 60
  Tumors Per Rat: 1.0
  No. of Rats with Tumors: 12
  Total No. Tumors: 20
[1]; HPR (1.5 mmol)
  inhibition of tumor incidence: 50-60%
  inhibition of tumors/rat: 50-65%
[1]; HPR alone, in diet
  minimum dosage used alone consistent with maximum inhibition of carcinogenesis: 1.0 to 1.5 mmol/kg
[2]; HPR 0.75 mmol/kg
  increase of tumor size: 70%
[2]; HPR 2 mmol/kg
  decrease of mammary tumor size: 15%
[2]
  tumor growth: continued to grow
  effect on tumor growth/development when fed separately: no observable inhibitory effect and indeed enhanced tumor development
MCF-7 cells; HPR (5 × 10^-8 M)
  free floating (mostly non viable) cells, % of control: 7 % of control
  number of free floating (mostly non viable) cells: 4160
  No. of viable cells: 33680 ± 2627
[8]; 1.0 mmol/kg diet daily, within 10 days
  inhibition of tumor growth: 80-90%
[8]; 2 mmol/kg diet
  tumor growth: growth arrest
[8]; 2 mmol/kg diet, within 5 to 10 days after growth arrest
  regression of DMBA-induced mammary tumors: 30%
[9]
  inhibition of tumor growth: 50%
[3]; HPR (0.75 mmol/kg)
  Final Weight: 421 +/- 14 gm
  Initial Weight: 409 +/- 18 gm
[3]; HPR (2.0 mmol/kg)
  Final Weight: 413 +/- 10 gm
  Initial Weight: 401 +/- 13 gm
Estrogen Receptors; HPR (2.0 mmol/kg)
  Estrogen Receptors: 50.6 +/- 8.4 Fmoles/mg Protein
Progesterone Receptors; HPR (0.75 mmol/kg)
  Progesterone Receptors: 90.7 +/- 18.0 Fmoles/mg Protein
Progesterone Receptors; HPR (2.0 mmol/kg)
  Progesterone Receptors: 89.3 +/- 13.7 Fmoles/mg Protein
[4]
  effect on weight gain: did not affect weight gain
[10]
  tissue trophism: displays trophism for the mammary gland

## O=C(O)[C@@H](O)[C@@H](O)[C@H](O)[C@@H](O)C(=O)[O-].[K+] [potassium hydrogen glucarate, reference compound]
beta-glucuronidase
  inhibition of beta-glucuronidase: effective as inhibitors of beta-glucuronidase
